The term inhibition denotes how much of the control response was suppressed. By IC50 is commonly meant the concentration that gives 50% inhibition. A low value points to greater potency.

Common to all, as to details: PANC-1, 24 h
Assay [1] concerns PANC-1. The assay is described as follows: Growth inhibition of human PANC1 cells in nutrient-deprived medium at 10 uM incubated for 24 hrs by MTT assay (reference value: 0.0 +/- 1.9%). In kind it is functional. (In general: Tetrazolium assays rely on reduction of a dye to a coloured formazan, in cell work by metabolically active cells.)
Assay [2] has as its system PANC-1. Description: Growth inhibition of human PANC1 cells in nutrient-rich medium at 10 uM incubated for 24 hrs by MTT assay (reference value: 0.0 +/- 3.8%). It is filed as functional.
The test system of assay [3] is PANC-1. The assay is described as follows: Growth inhibition of human PANC1 cells in nutrient-deprived medium incubated for 24 hrs by MTT assay. It is filed as functional, cell-based.

For the compound `CC(C)=CCC1Cc2c(OCCCNS(=O)(=O)c3ccc(C(F)(F)F)cc3)cc(=O)n(CCCO)c2CC1(C)C` (centres undefined), the inhibition at 10 µM is 29.6% in the assay on PANC-1 [1] and 0% in the assay on PANC-1 [2].
On to `CC(C)=CCC/C(C)=C/CC1Cc2c(OC(=O)Nc3ccc(F)c(F)c3)cc(=O)n(CCCO)c2CC1(C)C` (centres undefined), for which the inhibition at 10 µM with PANC-1 [1] amounted to 43.7%; with PANC-1 [2], 4.8%.
For `COc1cccc(NC(=O)Oc2cc(=O)n(CCCO)c3c2CC(CC=C(C)C)C(C)(C)C3)c1` (centres undefined), in that order: 16.2% and 0%.
`CC(C)=CCC/C(C)=C/CC1Cc2c(O)cc(=O)n(CCCO)c2CC1(C)C` (centres undefined): the inhibition at 10 µM in the assay with PANC-1 [1] was 28.7%; in the assay on PANC-1 [2], 0%.
In the case of `COc1ccc(NC(=O)Oc2cc(=O)n(CCCO)c3c2CC(C/C=C(\C)CCC=C(C)C)C(C)(C)C3)cc1` (centres undefined), half-maximal inhibition in the assay with PANC-1 [3] (IC50) required 7.1 µM. For the same compound, the inhibition at 10 µM with PANC-1 [1] is 64.1%; in the assay on PANC-1 [2] it was 0%.
Regarding `CC(C)=CCC/C(C)=C/CC1Cc2c(OCCCNS(=O)(=O)c3ccc([N+](=O)[O-])cc3)cc(=O)n(CCCO)c2CC1(C)C` (centres undefined), the results for the inhibition at 10 µM with PANC-1 [1] and in the assay with PANC-1 [2] were 7.4% and 0%, respectively.
`COc1ccc(C(=O)NCCCOc2cc(=O)n(CCCO)c3c2CC(C/C=C(\C)CCC=C(C)C)C(C)(C)C3)cc1` (centres undefined): the inhibition at 10 µM was found to be 45.7% in the assay on PANC-1 [1] and 14.1% in the assay on PANC-1 [2].
For `CC(C)=CCC/C(C)=C/CC1Cc2c(OCCCNC(=O)c3ccc([N+](=O)[O-])cc3)cc(=O)n(CCCO)c2CC1(C)C` (centres undefined), in that order: 16.8% and 6.5%.
In the assay with PANC-1 [3], `CCOc1cc(=O)n(CCCO)c2c1CC(CC=C(C)C)C(C)(C)C2` (centres undefined) had an IC50 of 7.3 µM. Moreover, the results for the inhibition at 10 µM with PANC-1 [1] and in the assay on PANC-1 [2] were 66.5% and 16.6%, respectively.
In the case of `CC(C)=CCC1Cc2c(OC(=O)Nc3ccc(F)cc3F)cc(=O)n(CCCO)c2CC1(C)C` (centres undefined), the inhibition at 10 µM worked out at 69.7% in the assay on PANC-1 [1] and 0% in the assay on PANC-1 [2].
For `CC(C)=CCC1Cc2c(OCCCOc3ccc(Cl)cc3)cc(=O)n(CCCO)c2CC1(C)C` (centres undefined), in that order: 22.7% and 0%.
Compound `CC(C)=CCC1Cc2c(OC(=O)Nc3ccc(F)cc3)cc(=O)n(CCCO)c2CC1(C)C` (centres undefined) gave a half-maximal inhibitory concentration (IC50) in the assay with PANC-1 [3] of 7.7 µM. The figures for the inhibition at 10 µM with PANC-1 [1] and in the assay on PANC-1 [2] were 71.2% and 0%, respectively.
In the assay with PANC-1 [3], `CCOc1cc(=O)n(CCCO)c2c1CC(C/C=C(\C)CCC=C(C)C)C(C)(C)C2` (centres undefined) yielded a concentration for half-maximal inhibition (IC50) of 5.8 µM. Further, the inhibition at 10 µM in the assay with PANC-1 [1] came to 67.8%; with PANC-1 [2] it was 0.8%.
For `CC(C)=CCC1Cc2c(OCCCNS(=O)(=O)c3ccc(Cl)cc3)cc(=O)n(CCCO)c2CC1(C)C` (centres undefined), the inhibition at 10 µM was 24.7% in the assay with PANC-1 [1] and 9.8% with PANC-1 [2].
As to `CC(C)=CCC/C(C)=C/CC1Cc2c(OC(=O)Nc3ccc(F)c(Cl)c3)cc(=O)n(CCCO)c2CC1(C)C` (centres undefined), the inhibition at 10 µM in the assay on PANC-1 [1] was 25%; in the assay on PANC-1 [2], 0%.
For `CC(C)=CCC1Cc2c(OCCCNC(=O)c3cccs3)cc(=O)n(CCCO)c2CC1(C)C` (centres undefined), in that order: 33.6% and 5.6%.
`CC(C)=CCC1Cc2c(OC(=O)Nc3ccc(F)c(Cl)c3)cc(=O)n(CCCO)c2CC1(C)C` (centres undefined) displayed an IC50 in the assay with PANC-1 [3] of 6.8 µM. The inhibition at 10 µM in the assay on PANC-1 [1] came out at 79.8%; in the assay with PANC-1 [2], 0%.
Regarding `CC(C)=CCC/C(C)=C/CC1Cc2c(OC(=O)Nc3ccc(F)cc3F)cc(=O)n(CCCO)c2CC1(C)C` (centres undefined), the inhibition at 10 µM in the assay on PANC-1 [1] was 33.7%; in the assay on PANC-1 [2], 15.6%.
In the assay on PANC-1 [3], `CC(C)=CCC/C(C)=C/CC1Cc2c(OC(=O)Nc3ccccc3F)cc(=O)n(CCCO)c2CC1(C)C` (centres undefined) registered an IC50 of 7.4 µM. Besides, the results for the inhibition at 10 µM in the assay with PANC-1 [1] and in the assay on PANC-1 [2] were 71.6% and 0%, respectively.
In the case of `CC(C)=CCC/C(C)=C/COc1cc(=O)n(CCCO)c2c1CC(CC=C(C)C)C(C)(C)C2` (centres undefined), the inhibition at 10 µM with PANC-1 [1] is 10.6%; in the assay with PANC-1 [2], 18.4%.
Turning to `CC(C)=CCC1Cc2c(OCCCOc3ccc([N+](=O)[O-])cc3)cc(=O)n(CCCO)c2CC1(C)C` (centres undefined), the inhibition at 10 µM in the assay on PANC-1 [1] was 47.5%; in the assay on PANC-1 [2], 0%.
Consider `CC(C)=CCC/C(C)=C/CC1Cc2c(OCc3ccccc3)cc(=O)n(CCCO)c2CC1(C)C` (centres undefined), for which the results for the inhibition at 10 µM in the assay with PANC-1 [1] and in the assay on PANC-1 [2] were 46.5% and 1.5%, respectively.
Turning to `COc1cccc(NC(=O)Oc2cc(=O)n(CCCO)c3c2CC(C/C=C(\C)CCC=C(C)C)C(C)(C)C3)c1` (centres undefined), the values for the inhibition at 10 µM in the assay with PANC-1 [1] and in the assay with PANC-1 [2] were 47% and 11.3%, respectively.
On the same counts, the results for `CC(C)=CCC/C(C)=C/CC1Cc2c(OCCCOc3ccc(Cl)cc3)cc(=O)n(CCCO)c2CC1(C)C` (centres undefined) are 25.2% and 0%.
On the same counts, the results for `CC(C)=CCC1Cc2c(OC(=O)Nc3ccc(Cl)c(Cl)c3)cc(=O)n(CCCO)c2CC1(C)C` (centres undefined) are 61.4% and 1.8%.
On to `CC(C)=CCC/C(C)=C/CC1Cc2c(OCCCOc3ccc([N+](=O)[O-])cc3)cc(=O)n(CCCO)c2CC1(C)C` (centres undefined), for which the half-maximal inhibitory concentration (IC50) in the assay on PANC-1 [3] is 6.3 µM. Moreover, the inhibition at 10 µM in the assay on PANC-1 [1] was 65.1%; in the assay with PANC-1 [2], 9.8%.

Source of the values: ChEMBL document CHEMBL4346665, “Synthesis and evaluation of tetrahydroquinolin-2(1H)-one derivatives as novel anti-pancreatic cancer agents via targeting autophagy” (Eur J Med Chem, 2019).
